In patent publication US11214803B2, “Modulators of YAP1 expression” (Ionis Pharmaceuticals, Inc., priority 2019, dated 2022):
Strand notation (5' to 3'): a small letter for the sugar, then the base; units joined by * are phosphorothioate-linked, units joined directly phosphodiester-linked; [ ] holds rarer units or linkages, { } end groups; capitals alone tell only the bases. k = constrained ethyl (cEt); [5mC] = 5-methylcytosine; d = 2'-deoxy (DNA)

Test system: Yap1 mRNA
Assay: Antisense inhibition of human Yap1 in A-431 cells by cEt gapmers, single dose (Example 4, RTS4814)
Assay type: cell-based
Settings: Table 14; A-431 cells, 5,000 cells per well, free uptake, 2,000 nM, approximately 48 hours; RTS4814; normalized to RIBOGREEN; Yap1 mRNA relative to untreated control; * = targets amplicon region of primer probe set
How it was run: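 A-431 cells took up 3-10-3 cEt gapmers (16-mer, full phosphorothioate, 5-methylcytosines) by free uptake at 2,000 nM for about 48 h. Yap1 mRNA was quantified by qRT-PCR, normalized to total RNA (RIBOGREEN), and reported as % of untreated control.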

| Substance | YAP1 (% UTC) |
| --- | --- |
| 1074944 (antisense kA*kA*kA*dA*d[5mC]*d[5mC]*d[5mC]*dT*dT*dT*dG*dG*dT*k[5mC]*kT*k[5mC]) [Compound 1074944] | 89 % UTC |
| 1076512 (antisense k[5mC]*kA*kT*dA*dA*dA*d[5mC]*d[5mC]*dA*dT*dT*dA*dA*kG*kT*kG) [Compound 1076512] | 65 % UTC |
| 1076544 (antisense kG*kA*k[5mC]*d[5mC]*dA*dA*d[5mC]*d[5mC]*dT*d[5mC]*d[5mC]*d[5mC]*d[5mC]*kT*kT*kG) [Compound 1076544] | 89 % UTC |
| 1074176 (antisense k[5mC]*kT*k[5mC]*d[5mC]*d[5mC]*d[5mC]*d[5mC]*dG*dA*d[5mC]*dG*d[5mC]*dG*k[5mC]*kA*k[5mC]) [Compound 1074176] | 84 % UTC |
| 1075136 (antisense k[5mC]*kT*kA*dG*dA*dA*dT*dA*dT*dT*dA*dA*dA*kG*kG*kG) [Compound 1075136] | 87 % UTC |
| 1074688 (antisense kT*k[5mC]*k[5mC]*d[5mC]*d[5mC]*d[5mC]*dT*dA*dA*dG*d[5mC]*dT*dA*kA*kA*kG) [Compound 1074688] | 83 % UTC |
| 1074624 (antisense kG*kG*k[5mC]*dT*dT*dA*dT*dT*d[5mC]*dT*dA*dG*dA*kA*kA*k[5mC]) [Compound 1074624] | 65 % UTC |
| 1075200 (antisense k[5mC]*kA*kT*dA*dT*dT*dA*dA*d[5mC]*dT*dA*dG*dA*kT*kG*kA) [Compound 1075200] | 120 % UTC |

Same assay, conditions: Table 15; A-431 cells, 5,000 cells per well, free uptake, 2,000 nM, approximately 48 hours; RTS4814; normalized to RIBOGREEN; Yap1 mRNA relative to untreated control; * = targets amplicon region of primer probe set

| Substance | YAP1 (% UTC) |
| --- | --- |
| 1075553 (kT*kG*kA*dT*dT*dA*dT*dA*dA*d[5mC]*dA*dT*dG*k[5mC]*kT*kG; antisense) [Compound 1075553] | 77 % UTC |
| 1076289 (kA*kA*k[5mC]*dG*dG*dA*d[5mC]*dA*dA*d[5mC]*dT*dT*dA*kA*k[5mC]*kA; antisense) [Compound 1076289] | 21 % UTC |
| 1075329 (kA*kG*kG*dG*dA*dA*dA*dA*d[5mC]*dT*dT*dT*dG*k[5mC]*kA*k[5mC]; antisense) [Compound 1075329] | 26 % UTC |
| 1074785 (kA*k[5mC]*k[5mC]*dA*dT*dA*dA*dG*dT*dA*dG*dA*dT*k[5mC]*kT*kA; antisense) [Compound 1074785] | 10 % UTC |
| 1074657 (antisense kT*k[5mC]*k[5mC]*d[5mC]*d[5mC]*d[5mC]*d[5mC]*dA*dG*dA*d[5mC]*dT*dT*kA*kA*kT) [Compound 1074657] | 59 % UTC |
| 1075297 (kG*kT*kT*dA*dA*dT*dT*dA*dT*dA*dA*dG*d[5mC]*kT*kG*kT; antisense) [Compound 1075297] | 10 % UTC |
| 1076129 (k[5mC]*kA*kT*dA*dA*dA*d[5mC]*d[5mC]*dT*dT*dA*dG*dT*k[5mC]*k[5mC]*kT; antisense) [Compound 1076129] | 26 % UTC |
| 1074913 (antisense k[5mC]*kA*kT*d[5mC]*d[5mC]*d[5mC]*dG*dA*dG*dT*dG*dG*dG*k[5mC]*kT*kA) [Compound 1074913] | 99 % UTC |
| 1075361 (kT*k[5mC]*kT*dT*dA*dA*dG*dG*dG*dA*dA*dT*dG*kT*kA*kT; antisense) [Compound 1075361] | 69 % UTC |
| 1076001 (kA*k[5mC]*kT*d[5mC]*dA*dA*dG*dG*dA*dA*d[5mC]*d[5mC]*dA*kT*kT*kT; antisense) [Compound 1076001] | 24 % UTC |
| 1075073 (antisense k[5mC]*kA*kT*dA*dA*dA*dA*dG*dT*dT*d[5mC]*d[5mC]*d[5mC]*k[5mC]*kA*kG) [Compound 1075073] | 51 % UTC |

Same assay, conditions: Table 16; A-431 cells, 5,000 cells per well, free uptake, 2,000 nM, approximately 48 hours; RTS4814; normalized to RIBOGREEN; Yap1 mRNA relative to untreated control cells

| Substance | YAP1 (% UTC) |
| --- | --- |
| 1075330 (kG*kA*kG*dG*dG*dA*dA*dA*dA*d[5mC]*dT*dT*dT*kG*k[5mC]*kA; antisense) [Compound 1075330] | 63 % UTC |
| 1074178 (antisense kG*k[5mC]*k[5mC]*dT*d[5mC]*d[5mC]*d[5mC]*d[5mC]*d[5mC]*dG*dA*d[5mC]*dG*k[5mC]*kG*k[5mC]) [Compound 1074178] | 95 % UTC |
| 1075810 (kG*kT*kA*dG*d[5mC]*dA*dA*dT*dA*dG*dA*dG*dT*kA*kA*k[5mC]; antisense) [Compound 1075810] | 7 % UTC |
| 1076066 (k[5mC]*kA*kT*dA*dT*dA*dA*dG*dA*dT*dG*dT*dT*kT*kG*k[5mC]; antisense) [Compound 1076066] | 8 % UTC |
| 1076130 (k[5mC]*kT*kG*dG*dA*dA*dT*dA*dG*dT*dG*dG*dG*kT*kG*k[5mC]; antisense) [Compound 1076130] | 34 % UTC |
| 1075298 (kA*kT*k[5mC]*dT*d[5mC]*dG*dG*dA*dA*dA*dT*dT*dT*kA*kA*kA; antisense) [Compound 1075298] | 128 % UTC |
| 1076162 (kA*kT*kT*dT*dA*d[5mC]*dT*dT*dG*dG*d[5mC]*dA*dA*k[5mC]*kT*k[5mC]; antisense) [Compound 1076162] | 9 % UTC |
| 1074914 (antisense kT*kT*kA*d[5mC]*dA*dT*d[5mC]*d[5mC]*d[5mC]*dG*dA*dG*dT*kG*kG*kG) [Compound 1074914] | 97 % UTC |
| 1076226 (k[5mC]*kA*kT*dA*dT*dA*dA*dA*d[5mC]*d[5mC]*dT*dT*dG*k[5mC]*kT*kA; antisense) [Compound 1076226] | 36 % UTC |

Same assay, conditions: Table 17; A-431 cells, 5,000 cells per well, free uptake, 2,000 nM, approximately 48 hours; RTS4814; normalized to RIBOGREEN; Yap1 mRNA relative to untreated control cells

| Substance | YAP1 (% UTC) |
| --- | --- |
| 1074851 (antisense kA*kT*kT*dG*dT*dT*dA*dT*dG*dA*dT*dA*dG*kG*k[5mC]*kA) [Compound 1074851] | 6 % UTC |
| 1074787 (k[5mC]*kA*kA*d[5mC]*d[5mC]*dA*dT*dA*dA*dG*dT*dA*dG*kA*kT*k[5mC]; antisense) [Compound 1074787] | 13 % UTC |
| 1076419 (kA*kT*kA*dT*dA*dA*dT*dA*dA*d[5mC]*d[5mC]*d[5mC]*dA*kT*kT*kG; antisense) [Compound 1076419] | 47 % UTC |
| 1074307 (antisense kG*kT*kG*dG*d[5mC]*d[5mC]*dT*d[5mC]*dA*d[5mC]*d[5mC]*dT*dG*k[5mC]*k[5mC]*kG) [Compound 1074307] | 105 % UTC |
| 1074531 (k[5mC]*kA*k[5mC]*dT*dA*dA*dA*d[5mC]*dT*dA*d[5mC]*dT*dT*k[5mC]*kA*kA; antisense) [Compound 1074531] | 73 % UTC |
| 1075747 (kA*kT*kT*dT*dA*dG*d[5mC]*dA*dT*dG*dA*dT*dT*kA*kA*k[5mC]; antisense) [Compound 1075747] | 43 % UTC |
| 1074627 (antisense k[5mC]*k[5mC]*kT*dG*dT*dT*dA*dT*dG*dA*dA*d[5mC]*d[5mC]*k[5mC]*kT*kT) [Compound 1074627] | 3 % UTC |
| 1075075 (antisense kA*kA*kT*dT*dT*dT*dA*dT*dA*dA*dG*d[5mC]*d[5mC]*k[5mC]*kA*k[5mC]) [Compound 1075075] | 9 % UTC |
| 1075843 (k[5mC]*kA*kT*dG*dA*dA*dA*dT*dG*dA*dT*dG*dG*kA*kA*k[5mC]; antisense) [Compound 1075843] | 47 % UTC |

Same assay, conditions: Yap1 mRNA remaining as percent of untreated control; 3-10-3 cEt gapmers; A-431 cells; Table 36

| Substance | YAP1 (% UTC) |
| --- | --- |
| 1075286 (antisense kA*kT*kT*dA*d[5mC]*dG*dG*dA*d[5mC]*dA*dG*dA*dA*kG*kT*kG) [compound 1075286] | 48 % UTC |
| 1076246 (kT*k[5mC]*k[5mC]*dT*dA*dA*dA*dA*dA*dA*d[5mC]*dT*dA*kG*kT*kG; antisense) [compound 1076246] | 75 % UTC |
| 1076150 (kA*kT*kT*dT*dA*dT*dT*dA*dA*d[5mC]*dT*d[5mC]*dA*k[5mC]*kG*kA; antisense) [compound 1076150] | 11 % UTC |
| 1074998 (antisense k[5mC]*kA*k[5mC]*dG*d[5mC]*dG*dA*d[5mC]*d[5mC]*dT*dA*d[5mC]*dT*kA*kA*kG) [compound 1074998] | 61 % UTC |
| 1074294 (antisense kT*kT*kG*dG*dA*dG*dT*dT*dG*d[5mC]*dT*dG*d[5mC]*k[5mC]*kA*k[5mC]) [compound 1074294] | 80 % UTC |
| 1074326 (antisense kA*k[5mC]*kG*d[5mC]*dA*dG*dG*dG*d[5mC]*dT*dA*dA*d[5mC]*kT*k[5mC]*k[5mC]) [compound 1074326] | 36 % UTC |
| 1075478 (k[5mC]*kA*kT*dT*dT*dT*dG*dA*dA*d[5mC]*d[5mC]*d[5mC]*dT*kT*kT*kA; antisense) [compound 1075478] | 20 % UTC |
| 1076566 (kA*kA*kT*dT*dA*d[5mC]*dA*dG*dT*dG*dT*d[5mC]*dT*k[5mC]*kA*k[5mC]; antisense) [compound 1076566] | 63 % UTC |

Same assay, conditions: Yap1 mRNA remaining as percent of untreated control; 3-10-3 cEt gapmers; A-431 cells; Table 37

| Substance | YAP1 (% UTC) |
| --- | --- |
| 1075095 (k[5mC]*kT*kT*dG*dA*dA*dA*dA*d[5mC]*dA*dA*dG*d[5mC]*k[5mC]*kA*k[5mC]; antisense) [compound 1075095] | 63 % UTC |
| 1075671 (kG*kA*kT*dA*dT*dA*dT*dA*dT*dG*dA*dT*dG*kG*kA*k[5mC]; antisense) [compound 1075671] | 37 % UTC |
| 1076087 (k[5mC]*kA*kA*dA*d[5mC]*dT*dA*dA*dT*dA*dG*dG*d[5mC]*k[5mC]*kA*kT; antisense) [compound 1076087] | 10 % UTC |
| 1075255 (kA*kA*kA*dT*dA*dT*d[5mC]*d[5mC]*dG*dT*dG*dT*d[5mC]*k[5mC]*kT*k[5mC]; antisense) [compound 1075255] | 16 % UTC |
